Test results from patent US5698581A, “Substituted N-heteroaroylguanidines, a process for their preparation, their use as a medicament or diagnostic agent, and a medicament containing them” (Hoechst Aktiengesellschaft, priority 1994, dated 1997).

The molecules below were run against T1, Na^+ /H^+ exchanger of rabbit erythrocytes (Oryctolagus cuniculus, UniProt P23791) (assay: Inhibition of the Na^+ /H^+ exchanger of rabbit erythrocytes (amiloride-sensitive sodium influx, flame photometry)). Conditions: pH 7.4, 37° C., rabbits on 2% cholesterol diet.
T1 construct: determine the Na^+ influx into the erythrocytes via Na^+ /H^+ exchange; endogenous in cells; host or cells: erythrocytes in whole blood of cholesterol-fed New Zealand White rabbits
T1 sequence (P23791 whole entry): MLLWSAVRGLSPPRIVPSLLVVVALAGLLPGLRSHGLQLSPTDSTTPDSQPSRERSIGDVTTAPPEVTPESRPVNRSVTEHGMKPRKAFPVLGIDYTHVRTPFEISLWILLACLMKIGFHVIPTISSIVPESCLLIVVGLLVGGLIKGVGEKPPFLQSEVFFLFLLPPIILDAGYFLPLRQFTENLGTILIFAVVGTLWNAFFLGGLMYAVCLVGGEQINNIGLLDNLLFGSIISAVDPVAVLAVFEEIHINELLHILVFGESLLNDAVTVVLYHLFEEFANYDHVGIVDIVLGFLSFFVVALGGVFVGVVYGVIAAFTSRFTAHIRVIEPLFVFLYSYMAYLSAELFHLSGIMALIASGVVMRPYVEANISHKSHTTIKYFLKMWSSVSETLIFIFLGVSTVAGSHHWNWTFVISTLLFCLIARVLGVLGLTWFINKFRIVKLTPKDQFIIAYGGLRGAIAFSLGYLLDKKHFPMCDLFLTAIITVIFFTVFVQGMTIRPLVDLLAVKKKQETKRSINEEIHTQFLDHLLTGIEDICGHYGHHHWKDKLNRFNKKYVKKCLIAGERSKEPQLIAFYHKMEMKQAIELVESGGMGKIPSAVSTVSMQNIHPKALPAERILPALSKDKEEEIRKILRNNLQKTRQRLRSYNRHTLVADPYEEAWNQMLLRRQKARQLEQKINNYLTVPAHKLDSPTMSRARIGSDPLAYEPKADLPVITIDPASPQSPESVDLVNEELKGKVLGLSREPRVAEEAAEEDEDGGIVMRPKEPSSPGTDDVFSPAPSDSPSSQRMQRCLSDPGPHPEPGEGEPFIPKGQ
Type: cell-based, rabbit (New Zealand White)
Description: Inhibition of the Na^+ /H^+ exchanger of rabbit erythrocytes
New Zealand White rabbits (Ivanovas) were given a standard diet containing 2% cholesterol for six weeks in order to activate Na^+ /H^+ exchange and thus to be able to use flame photometry to determine the Na^+ influx into the erythrocytes via Na^+ /H^+ exchange. The blood was removed from the aural arteries and rendered incoagulable by the addition of 25 IU of potassium heparin. One part of each sample was used for the duplicate determination of the hematocrit by centrifugation. Aliquots of in each case 100 μl were employed for measuring the initial content of Na^+ in the erythrocytes.
In order to determine the amiloride-sensitive sodium influx, 100 μl of each blood sample were in each case incubated, at pH 7.4 and 37° C., in 5 ml of a hyperosmolar salt/sucrose medium (mmol/l: 140 NaCl, 3 KCl, 150 sucrose, 0.1 ouabain, 20 tris(hydroxymethyl)aminomethane). The erythrocytes were then washed three times with ice cold MgCl2 /ouabain solution (mmol/l: 112 MgCl2, 0.1 ouabain) and hemolyzed in 2.0 ml of distilled water. The intracellular content of sodium was determined by flame photometry.
The nett influx of Na^+ was calculated from the difference between the initial sodium values and the sodium content of the erythrocytes following incubation. The amiloride-inhibitable sodium Influx was given by the difference in the sodium content of the erythrocytes following incubation with and without 3×10^-4 mol/l amiloride. The same procedure was also used in the case of the compounds according to the invention.
Work on Cn1c(C(=O)N=C(N)N)ccc1C(F)(C(F)(F)F)C(F)(F)F [Example 1, 5-Heptafluoroisopropyl-1-methylpyrrole-2-carboguanidide] yielded an IC50 of 300 nM. Work on Cn1c(C(=O)N=C(N)N)ccc1C(F)(F)C(F)(F)C(F)(F)F [Example 2, 5-Heptafluoro-n-propyl-1-methylpyrrole-2-carboguanidide] yielded an IC50 of 1000 nM. For Cn1c(C(=O)N=C(N)N)ccc1C(F)(F)C(F)(F)F [Example 3, 5-Pentafluoroethyl-1-methylpyrrole-2-carboguanidide], the IC50 was 300 nM. Work on Cn1c(C(=O)N=C(N)N)ccc1C(F)(F)F [Example 4, 5-Trifluoromethyl-1-methylpyrrole-2-carboguanidide] yielded an IC50 of 200 nM. Cn1cccc1C(=O)N=C(N)N [Example 5, 1-Methylpyrrole-2-carboguanidide] gave an IC50 of 5000 nM. CC(C)c1sc(C(=O)N=C(N)N)cc1S(C)(=O)=O [Example 6, 5-Isopropyl-4-methylsulfonylthiophene-2-carboguanidide] showed an IC50 of 500 nM. With Cc1ccc(C(=O)N=C(N)N)s1 [Example 7, 5Methylthiophene-2-carboguanidide] the IC50 was 3000 nM. NC(N)=NC(=O)c1cc(Br)c(Br)s1 [Example 8, 4,5-Dibromothiophene-2-carboguanidide] gave an IC50 of 500 nM.
